Measurements from US20240115575A1, “PHARMACEUTICAL COMPOSITION OF MULTI-TARGET PROTEIN KINASE INHIBITORS, AND USE THEREOF” (CSPC Zhongqi Pharmaceutical Technology (Shijiazhuang) Co., …, priority 2020, published 2024).

Assays:
[1] = tested on: human non-small cell lung cancer HCC827; assay: In-vivo anti-tumor test, non-small cell lung cancer model; conditions: orally administered once daily for 30 days
Experimental: (§1) According to the in-vivo anti-tumor test described under Biological Assessment of the Patent Application No. WO 2011/147066, the samples of the salt obtained in Preparation Example 2 were tested (specifically for FLT3-ITD acute myeloid leukemia, non-small cell lung cancer with EGFR activating mutation, and Ph-positive chronic myeloid leukemia, respectively).

[2] = tested on: MV4-11 (FLT3-ITD mutation) subcutaneous tumor; assay: In-vivo anti-tumor test, MV4-11 subcutaneous tumor model; conditions: orally administered once daily for 21 days
Experimental: as §1

MET = MET (Homo sapiens, UniProt P08581); assay: Evaluation of the inhibitory activity of kinase; type: biochemical
Experimental: (§2) The samples of the salt obtained in Preparation Example 2 were tested according to the evaluation of the inhibitory activity of kinase described under Biological Assessment of the Patent Application No. WO 2011/147066.

PDGFRα = PDGFRα (Homo sapiens, UniProt P16234); assay: Evaluation of the inhibitory activity of kinase; type: biochemical
Experimental: as §2

VEGFR2 = VEGFR2 (Homo sapiens, UniProt P35968); assay: Evaluation of the inhibitory activity of kinase; type: biochemical
Experimental: as §2

BTK = BTK (Homo sapiens, UniProt Q06187); assay: Evaluation of the inhibitory activity of kinase; type: biochemical
Experimental: as §2

c-KIT = c-KIT (Homo sapiens, UniProt P10721); assay: Evaluation of the inhibitory activity of kinase; type: biochemical
Experimental: as §2

ALK = ALK (Homo sapiens, UniProt Q9UM73); assay: Evaluation of the inhibitory activity of kinase; type: biochemical
Experimental: as §2

[3] = API-excipient compatibility test; type: physicochemical; conditions: 14 days and 28 or 30 days; illumination, 60° C., high humidity; maximum single impurity, total impurity, color
Experimental: The active ingredient (compound of Formula B) was mixed evenly with various excipients mentioned in the present application respectively, and put in 10-ml injection vials. The injection vials were stored for 14 days and 28 days or 30 days under the conditions of an illumination of 4500 lux±500 lux/peripheral humidity, a high temperature of 60° C.±2° C./peripheral humidity, a high humidity of 90%±5% RH, and a temperature of 25° C.±2° C. respectively to detect the impurity content, so as to test the compatibility of the active ingredient with various excipients.

Chain of PDGFRα (P16234 24-1089): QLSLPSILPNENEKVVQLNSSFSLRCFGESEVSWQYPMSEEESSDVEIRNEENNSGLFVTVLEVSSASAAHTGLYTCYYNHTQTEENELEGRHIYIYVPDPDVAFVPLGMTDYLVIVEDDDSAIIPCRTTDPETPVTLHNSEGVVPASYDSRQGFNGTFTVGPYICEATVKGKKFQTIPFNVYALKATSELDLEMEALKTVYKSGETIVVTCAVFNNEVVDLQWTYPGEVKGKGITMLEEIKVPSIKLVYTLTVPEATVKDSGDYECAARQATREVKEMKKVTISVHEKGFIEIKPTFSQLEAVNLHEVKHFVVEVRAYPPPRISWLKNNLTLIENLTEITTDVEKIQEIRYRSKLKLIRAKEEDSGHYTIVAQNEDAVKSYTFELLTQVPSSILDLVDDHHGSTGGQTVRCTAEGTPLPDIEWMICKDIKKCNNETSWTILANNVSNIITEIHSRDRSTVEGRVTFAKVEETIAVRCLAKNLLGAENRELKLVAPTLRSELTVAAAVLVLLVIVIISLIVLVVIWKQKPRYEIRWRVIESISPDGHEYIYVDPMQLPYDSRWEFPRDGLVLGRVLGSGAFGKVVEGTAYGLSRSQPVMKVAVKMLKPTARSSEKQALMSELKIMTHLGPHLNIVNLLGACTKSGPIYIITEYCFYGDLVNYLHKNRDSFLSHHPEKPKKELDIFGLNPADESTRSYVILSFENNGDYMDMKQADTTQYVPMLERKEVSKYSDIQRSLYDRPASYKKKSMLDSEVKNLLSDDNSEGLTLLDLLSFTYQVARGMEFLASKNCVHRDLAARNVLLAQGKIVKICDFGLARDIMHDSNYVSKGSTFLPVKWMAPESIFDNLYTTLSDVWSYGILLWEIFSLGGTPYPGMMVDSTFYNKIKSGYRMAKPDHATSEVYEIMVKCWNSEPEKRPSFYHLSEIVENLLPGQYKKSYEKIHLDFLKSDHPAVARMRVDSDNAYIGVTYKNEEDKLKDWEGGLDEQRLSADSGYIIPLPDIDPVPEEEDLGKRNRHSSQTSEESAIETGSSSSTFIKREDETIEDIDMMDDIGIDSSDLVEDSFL
Chain of c-KIT (P10721 26-976): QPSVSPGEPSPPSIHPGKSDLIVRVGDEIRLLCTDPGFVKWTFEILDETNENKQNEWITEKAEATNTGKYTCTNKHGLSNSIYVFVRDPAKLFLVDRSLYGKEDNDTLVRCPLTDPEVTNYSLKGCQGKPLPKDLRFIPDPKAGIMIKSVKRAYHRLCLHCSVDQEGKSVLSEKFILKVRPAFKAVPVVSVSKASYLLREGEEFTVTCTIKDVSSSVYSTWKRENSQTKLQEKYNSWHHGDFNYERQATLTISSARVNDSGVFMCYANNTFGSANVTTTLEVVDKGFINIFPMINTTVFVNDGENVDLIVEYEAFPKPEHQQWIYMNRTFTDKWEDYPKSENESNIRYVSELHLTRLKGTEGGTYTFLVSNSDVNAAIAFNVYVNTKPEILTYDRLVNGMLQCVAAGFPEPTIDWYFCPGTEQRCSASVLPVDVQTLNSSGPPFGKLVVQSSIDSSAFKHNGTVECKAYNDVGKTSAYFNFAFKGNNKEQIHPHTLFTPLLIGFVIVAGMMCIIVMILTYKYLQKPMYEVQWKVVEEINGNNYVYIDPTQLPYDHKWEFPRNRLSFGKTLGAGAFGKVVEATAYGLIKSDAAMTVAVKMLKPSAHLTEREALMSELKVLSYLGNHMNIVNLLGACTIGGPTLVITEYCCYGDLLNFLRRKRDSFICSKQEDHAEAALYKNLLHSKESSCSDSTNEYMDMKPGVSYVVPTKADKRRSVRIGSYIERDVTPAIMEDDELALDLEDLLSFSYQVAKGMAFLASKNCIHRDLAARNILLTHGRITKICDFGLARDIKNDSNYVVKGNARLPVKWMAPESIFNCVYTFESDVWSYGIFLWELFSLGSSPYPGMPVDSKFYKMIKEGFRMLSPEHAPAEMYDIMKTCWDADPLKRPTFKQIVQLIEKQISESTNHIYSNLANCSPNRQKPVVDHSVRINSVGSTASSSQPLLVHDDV
Chain of ALK (Q9UM73 19-1620): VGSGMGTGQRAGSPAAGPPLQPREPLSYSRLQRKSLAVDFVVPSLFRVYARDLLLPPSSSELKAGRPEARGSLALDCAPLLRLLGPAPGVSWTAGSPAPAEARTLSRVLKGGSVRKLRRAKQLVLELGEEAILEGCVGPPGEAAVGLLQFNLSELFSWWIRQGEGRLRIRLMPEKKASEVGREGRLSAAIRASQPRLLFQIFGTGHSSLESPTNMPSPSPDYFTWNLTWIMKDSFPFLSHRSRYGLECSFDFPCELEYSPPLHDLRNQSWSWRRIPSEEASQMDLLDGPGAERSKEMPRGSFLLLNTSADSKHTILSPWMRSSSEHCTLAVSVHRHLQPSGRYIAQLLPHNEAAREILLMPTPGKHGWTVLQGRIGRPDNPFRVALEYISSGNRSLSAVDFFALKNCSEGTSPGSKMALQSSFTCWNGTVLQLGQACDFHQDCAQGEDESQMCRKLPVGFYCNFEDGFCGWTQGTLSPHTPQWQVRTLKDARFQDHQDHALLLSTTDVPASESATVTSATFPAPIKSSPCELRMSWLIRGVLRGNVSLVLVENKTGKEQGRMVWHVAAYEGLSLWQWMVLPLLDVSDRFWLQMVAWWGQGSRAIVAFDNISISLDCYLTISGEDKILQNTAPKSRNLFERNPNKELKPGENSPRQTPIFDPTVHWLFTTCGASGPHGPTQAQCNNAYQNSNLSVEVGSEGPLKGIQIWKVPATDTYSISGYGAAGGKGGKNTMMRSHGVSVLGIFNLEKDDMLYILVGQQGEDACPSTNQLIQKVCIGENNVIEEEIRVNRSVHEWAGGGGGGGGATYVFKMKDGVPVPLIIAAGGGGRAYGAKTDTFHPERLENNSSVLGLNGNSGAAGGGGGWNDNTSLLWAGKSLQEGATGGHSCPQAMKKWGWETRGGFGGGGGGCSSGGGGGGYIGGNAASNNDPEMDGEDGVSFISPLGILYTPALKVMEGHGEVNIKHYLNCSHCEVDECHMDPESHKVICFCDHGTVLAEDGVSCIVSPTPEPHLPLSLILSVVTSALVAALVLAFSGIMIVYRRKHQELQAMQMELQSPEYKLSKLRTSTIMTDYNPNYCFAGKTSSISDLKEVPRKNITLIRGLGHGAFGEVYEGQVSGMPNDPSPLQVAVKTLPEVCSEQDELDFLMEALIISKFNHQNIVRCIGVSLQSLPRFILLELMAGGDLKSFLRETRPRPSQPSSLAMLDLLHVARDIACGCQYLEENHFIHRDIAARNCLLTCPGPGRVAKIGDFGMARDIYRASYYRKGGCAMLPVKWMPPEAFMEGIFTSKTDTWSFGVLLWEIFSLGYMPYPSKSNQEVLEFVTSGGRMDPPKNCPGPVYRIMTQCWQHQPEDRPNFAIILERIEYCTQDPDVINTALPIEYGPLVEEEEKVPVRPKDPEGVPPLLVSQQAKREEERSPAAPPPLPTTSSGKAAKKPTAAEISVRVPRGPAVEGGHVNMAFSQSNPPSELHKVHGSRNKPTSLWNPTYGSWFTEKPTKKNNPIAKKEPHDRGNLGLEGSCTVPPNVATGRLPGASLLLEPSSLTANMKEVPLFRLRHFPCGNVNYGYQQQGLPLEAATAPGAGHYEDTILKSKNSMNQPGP
Chain of BTK (Q06187 whole entry): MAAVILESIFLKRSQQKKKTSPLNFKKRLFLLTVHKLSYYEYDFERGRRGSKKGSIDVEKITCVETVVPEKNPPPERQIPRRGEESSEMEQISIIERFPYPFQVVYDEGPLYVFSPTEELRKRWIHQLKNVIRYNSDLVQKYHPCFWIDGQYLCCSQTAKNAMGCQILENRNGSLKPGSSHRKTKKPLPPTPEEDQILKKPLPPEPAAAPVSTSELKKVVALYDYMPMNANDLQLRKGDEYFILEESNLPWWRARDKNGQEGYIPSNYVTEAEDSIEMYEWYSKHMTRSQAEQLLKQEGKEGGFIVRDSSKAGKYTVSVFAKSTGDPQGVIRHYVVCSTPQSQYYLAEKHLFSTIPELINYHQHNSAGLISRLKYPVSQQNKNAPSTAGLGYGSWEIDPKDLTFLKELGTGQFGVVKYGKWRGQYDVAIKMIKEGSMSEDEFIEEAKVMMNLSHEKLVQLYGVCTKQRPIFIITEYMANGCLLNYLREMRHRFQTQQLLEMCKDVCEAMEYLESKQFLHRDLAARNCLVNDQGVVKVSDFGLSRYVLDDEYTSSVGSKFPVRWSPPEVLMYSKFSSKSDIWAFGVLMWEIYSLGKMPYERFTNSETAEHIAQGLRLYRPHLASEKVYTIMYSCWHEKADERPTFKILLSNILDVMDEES

CC(C)n1c(Nc2cccnc2)nc2cnc(Nc3ccc(N4CCN(C)CC4)cc3)nc21 [Preparation Example 2]
effect on tumor (compared with the initial tumor) ([1]; 7.5 mg/kg): tumor shrinkage
effect on tumor (compared with the initial tumor) ([1]; 15 mg/kg): tumor shrinkage
effect on tumor (compared with the initial tumor) ([1]; 30 mg/kg): almost complete tumor regression
effect on growth of HCC827, dose dependence ([1]; 7.5, 15 and 30 mg/kg): dose-dependently inhibit the growth
effect on tumor growth ([2]; 5 mg/kg): completely inhibit the tumor growth
effect on tumor growth ([2]; 10 mg/kg): complete tumor regression
effect on tumor growth ([2]; 20 mg/kg): complete tumor regression
inhibiting the activity of kinase (MET): capable of inhibiting
inhibiting the activity of kinase (PDGFRα): capable of inhibiting
inhibiting the activity of kinase (VEGFR2): capable of inhibiting
inhibiting the activity of kinase (BTK): capable of inhibiting
inhibiting the activity of kinase (c-KIT): capable of inhibiting
inhibiting the activity of kinase (ALK): capable of inhibiting
compatibility of the active ingredient with various excipients [3]: good compatibility
